The values below are quoted from earlier work in patent publication US20130143897A1, “ORAL CONTROLLED RELEASE PHARMACEUTICAL COMPOSITIONS OF BLONANSERIN” (LUPIN LIMITED, priority 2010, published 2013).

One data set concerns the target serotonin (S2) receptors (Homo sapiens, UniProt P28223).
Another data set addresses dopamine (D2) receptors (Homo sapiens, UniProt P14416).

Chain of dopamine (D2) receptors (P14416 whole entry): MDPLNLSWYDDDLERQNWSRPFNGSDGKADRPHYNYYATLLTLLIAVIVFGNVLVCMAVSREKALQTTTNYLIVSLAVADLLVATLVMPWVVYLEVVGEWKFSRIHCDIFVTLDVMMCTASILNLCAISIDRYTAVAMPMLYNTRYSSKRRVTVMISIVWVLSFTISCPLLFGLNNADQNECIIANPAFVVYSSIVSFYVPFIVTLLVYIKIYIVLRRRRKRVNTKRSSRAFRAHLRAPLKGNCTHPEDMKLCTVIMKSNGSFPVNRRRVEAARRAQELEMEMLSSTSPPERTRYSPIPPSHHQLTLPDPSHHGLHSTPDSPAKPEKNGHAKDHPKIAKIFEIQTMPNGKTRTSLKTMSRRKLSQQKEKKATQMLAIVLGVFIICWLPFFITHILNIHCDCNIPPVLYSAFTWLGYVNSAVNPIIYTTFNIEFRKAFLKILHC
Chain of serotonin (S2) receptors (P28223 whole entry): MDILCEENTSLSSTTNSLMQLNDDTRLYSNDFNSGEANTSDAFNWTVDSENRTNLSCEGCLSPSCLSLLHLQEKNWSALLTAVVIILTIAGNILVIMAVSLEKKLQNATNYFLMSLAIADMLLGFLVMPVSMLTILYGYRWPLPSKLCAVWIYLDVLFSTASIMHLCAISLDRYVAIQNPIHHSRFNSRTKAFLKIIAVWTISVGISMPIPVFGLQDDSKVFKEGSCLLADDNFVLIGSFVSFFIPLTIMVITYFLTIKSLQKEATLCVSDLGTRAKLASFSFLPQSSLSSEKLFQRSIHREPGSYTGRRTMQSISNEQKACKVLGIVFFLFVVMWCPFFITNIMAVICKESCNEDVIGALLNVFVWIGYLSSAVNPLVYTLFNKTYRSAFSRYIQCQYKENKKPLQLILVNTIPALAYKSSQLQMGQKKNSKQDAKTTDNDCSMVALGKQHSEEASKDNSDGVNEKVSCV

Consider `CCN1CCN(c2cc(-c3ccc(F)cc3)c3c(n2)CCCCCC3)CC1` [Blonanserin, 2-(4-Ethyl-1-piperazinyl)-4-(4-fluorophenyl)-5,6,7,8,9,10-hexahydrocycloocta[b]pyridine], for which the solubility in water result is “poor”. Also, the “binding property to serotonin (S2) receptors” value at serotonin (S2) receptors is recorded as “potent”. Also, the “binding property to dopamine (D2) receptors” value at dopamine (D2) receptors was “potent”.
